These results are taken from ChEMBL document CHEMBL1201862, “PubChem BioAssay data set” (2004).

The source made the active and inactive calls. Some results are limits rather than exact numbers.

Assay [1] addresses T1, Mannose-6-phosphate isomerase (Homo sapiens, UniProt P34949).
T1 sequence (P34949 whole entry): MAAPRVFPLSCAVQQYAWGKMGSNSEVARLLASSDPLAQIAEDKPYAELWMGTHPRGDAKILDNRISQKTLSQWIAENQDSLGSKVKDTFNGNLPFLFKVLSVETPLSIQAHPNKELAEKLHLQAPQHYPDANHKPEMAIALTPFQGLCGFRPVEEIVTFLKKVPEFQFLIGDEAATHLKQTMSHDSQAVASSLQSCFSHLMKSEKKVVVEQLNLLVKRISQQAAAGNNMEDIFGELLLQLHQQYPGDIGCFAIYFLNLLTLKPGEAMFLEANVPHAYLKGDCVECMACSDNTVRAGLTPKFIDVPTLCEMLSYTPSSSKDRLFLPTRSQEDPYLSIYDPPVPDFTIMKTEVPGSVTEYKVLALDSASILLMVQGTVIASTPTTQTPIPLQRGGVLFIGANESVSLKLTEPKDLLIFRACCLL
As to the kind of experiment: inhibitors of human PMI, primary screen, biochemical, fluorescence intensity, coupled assay (AID 1209).

The target of a further assay is CAAX prenyl protease 2 (Saccharomyces cerevisiae S288c, UniProt Q03530). In kind it is biochemical.
Assay [2] deals with T1, Mannose-6-phosphate isomerase. As to the kind of experiment: human PMI inhibitors, high substrate, primary screen, biochemical, fluorescence intensity, high mannose 6-phosphate (AID 1220).
The target in assay [3] is T2, Rac GTPase-activating protein 1 (Homo sapiens, UniProt Q9H0H5).
T2 sequence (Q9H0H5 whole entry): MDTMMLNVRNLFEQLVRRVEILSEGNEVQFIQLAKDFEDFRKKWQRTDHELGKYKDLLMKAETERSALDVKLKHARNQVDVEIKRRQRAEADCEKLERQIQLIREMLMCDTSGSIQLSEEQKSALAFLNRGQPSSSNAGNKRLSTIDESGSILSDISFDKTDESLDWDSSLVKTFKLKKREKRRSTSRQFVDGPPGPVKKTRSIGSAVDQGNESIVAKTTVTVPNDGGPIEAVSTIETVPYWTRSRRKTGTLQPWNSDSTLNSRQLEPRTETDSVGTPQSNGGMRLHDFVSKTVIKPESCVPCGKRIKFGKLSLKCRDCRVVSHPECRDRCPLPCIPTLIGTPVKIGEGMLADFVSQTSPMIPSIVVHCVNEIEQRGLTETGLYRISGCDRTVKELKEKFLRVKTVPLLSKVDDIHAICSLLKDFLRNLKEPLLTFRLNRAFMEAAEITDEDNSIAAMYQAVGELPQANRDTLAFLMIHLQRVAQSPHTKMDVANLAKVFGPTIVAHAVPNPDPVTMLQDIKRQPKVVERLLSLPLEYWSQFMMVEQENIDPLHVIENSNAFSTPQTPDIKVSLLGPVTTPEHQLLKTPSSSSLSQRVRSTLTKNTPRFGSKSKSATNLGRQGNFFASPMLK
The assay is described as follows: MgcRacGAP GTPase-activating activity inhibitors, confirmation, biochemical, ADP Hunter fluorescence, primary and confirmatory (AID 624330). In kind it is functional.

In assay [4] the target is G-protein coupled receptor 55 (Homo sapiens, UniProt Q9Y2T6). As to the kind of experiment: GPR55 agonists via beta-arrestin recruitment, primary screen, imaging, U2OS cells, beta-arrestin-GFP redistribution (AID 1961). Type of assay: functional. (In general: Activated receptors often draw arrestin, which recruitment assays turn into a signal.)
Chain of G-protein coupled receptor 55 (Q9Y2T6 whole entry): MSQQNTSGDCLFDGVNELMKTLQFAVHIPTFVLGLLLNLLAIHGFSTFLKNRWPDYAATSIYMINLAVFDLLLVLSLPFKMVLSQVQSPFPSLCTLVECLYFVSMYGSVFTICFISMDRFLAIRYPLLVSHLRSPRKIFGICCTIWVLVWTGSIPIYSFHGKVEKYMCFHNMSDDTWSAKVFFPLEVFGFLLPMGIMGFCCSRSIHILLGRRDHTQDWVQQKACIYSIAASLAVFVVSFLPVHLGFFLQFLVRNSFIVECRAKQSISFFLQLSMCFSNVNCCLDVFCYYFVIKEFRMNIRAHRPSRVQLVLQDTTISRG
Assay [5] addresses Lysine-specific demethylase 4C (Homo sapiens, UniProt Q9H3R0). The assay is described as follows: GASC-1 (JMJD2C) histone demethylase inhibitors, dose response, biochemical, DELFIA europium, cherry-picked samples (AID 488835). Type of assay: functional.
A short description of assay [6]: Counterscreen for activators of the function of SWI/SNF related, matrix associated, actin dependent regulator of chromatin, subfamily a, member 2 (SMARCA2, BRM): Luminescence-based cell-based high throughput dose response assay to identify non-selective compounds using the VP16 reporter assay. In kind it is functional. (In general: Counterscreens check selectivity or assay interference.)

In assay [7] the target is T3, Short transient receptor potential channel 4 (Mus musculus, UniProt Q9QUQ5).
T3 sequence (Q9QUQ5 whole entry): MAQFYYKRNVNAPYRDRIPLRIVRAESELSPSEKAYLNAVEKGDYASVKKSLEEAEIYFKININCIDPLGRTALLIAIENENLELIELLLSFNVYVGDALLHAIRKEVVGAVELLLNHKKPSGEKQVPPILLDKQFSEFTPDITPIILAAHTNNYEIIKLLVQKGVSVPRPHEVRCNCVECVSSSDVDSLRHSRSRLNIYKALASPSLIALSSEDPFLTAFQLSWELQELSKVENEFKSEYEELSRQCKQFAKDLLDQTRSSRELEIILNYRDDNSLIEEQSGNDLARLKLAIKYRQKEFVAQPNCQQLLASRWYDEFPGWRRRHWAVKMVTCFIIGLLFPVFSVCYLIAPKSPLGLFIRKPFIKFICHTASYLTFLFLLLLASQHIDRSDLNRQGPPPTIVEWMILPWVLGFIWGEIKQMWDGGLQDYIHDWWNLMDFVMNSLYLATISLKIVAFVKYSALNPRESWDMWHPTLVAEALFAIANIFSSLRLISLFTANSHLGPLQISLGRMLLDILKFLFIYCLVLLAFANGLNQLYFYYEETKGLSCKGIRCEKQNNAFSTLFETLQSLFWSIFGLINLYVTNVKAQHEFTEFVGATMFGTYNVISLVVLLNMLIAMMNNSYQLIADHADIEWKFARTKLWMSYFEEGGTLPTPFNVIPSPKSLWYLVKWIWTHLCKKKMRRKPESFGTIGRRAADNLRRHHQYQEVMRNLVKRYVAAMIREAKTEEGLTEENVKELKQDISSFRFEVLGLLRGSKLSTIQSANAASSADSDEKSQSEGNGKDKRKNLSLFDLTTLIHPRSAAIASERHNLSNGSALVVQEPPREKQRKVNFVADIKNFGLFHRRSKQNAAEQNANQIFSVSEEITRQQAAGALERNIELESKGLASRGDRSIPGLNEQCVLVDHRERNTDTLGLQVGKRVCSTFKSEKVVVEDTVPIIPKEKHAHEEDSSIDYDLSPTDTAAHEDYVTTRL
As to the kind of experiment: mouse TRPC4 channel inhibitors, dose response, cell-based, HEK293 TRPC4/mu-opioid, Fluo-4 calcium (AID 434942).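 Further: potency of inhibitors blocking the TRPC4 calcium response.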 Type of assay: functional.

Assay [8] addresses DNA dC->dU-editing enzyme APOBEC-3A (Homo sapiens, UniProt P31941). As to the kind of experiment: APOBEC3A DNA deaminase inhibitors, dose response, biochemical (AID 504722). In kind it is functional.
Assay [9] has as its target DNA dC->dU-editing enzyme APOBEC-3G (Homo sapiens, UniProt Q9HC16). The assay is described as follows: Dose Response confirmation of small molecule APOBEC3G DNA Deaminase Inhibitors via a fluorescence-based single-stranded DNA deaminase assay. [Related pubchem assays (depositor defined):AID493012, AID493028]. In kind it is functional.
Assay [10] has as its target SWI/SNF-related matrix-associated actin-dependent regulator of chromatin subfamily A member 2 (Homo sapiens, UniProt P51531). As to the kind of experiment: Luminescence-based cell-based high throughput dose response assay to identify activators of the function of SWI/SNF related, matrix associated, actin dependent regulator of chromatin, subfamily a, member 2 (SMARCA2, BRM). In kind it is functional.

Assay [11] has as its target DNA damage-inducible transcript 3 protein (Mus musculus, UniProt P35639). In kind it is functional, Cricetulus griseus.
In assay [12] the target is Induced myeloid leukemia cell differentiation protein Mcl-1 (Homo sapiens, UniProt Q07820). In kind it is functional.
Chain of Induced myeloid leukemia cell differentiation protein Mcl-1 (Q07820 whole entry): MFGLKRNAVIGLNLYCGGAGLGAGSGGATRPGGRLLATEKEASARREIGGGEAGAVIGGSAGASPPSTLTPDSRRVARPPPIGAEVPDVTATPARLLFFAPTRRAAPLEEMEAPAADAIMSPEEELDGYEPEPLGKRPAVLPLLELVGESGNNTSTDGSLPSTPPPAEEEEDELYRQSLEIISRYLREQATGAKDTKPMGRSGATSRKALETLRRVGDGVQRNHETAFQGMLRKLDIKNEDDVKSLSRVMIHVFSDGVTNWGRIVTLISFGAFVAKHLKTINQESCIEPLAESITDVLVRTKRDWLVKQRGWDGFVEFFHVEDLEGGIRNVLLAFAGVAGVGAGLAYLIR
For assay [13], the target named is T4, Kappa-type opioid receptor (Homo sapiens, UniProt P41145). In kind it is functional.
T4 sequence (P41145 whole entry): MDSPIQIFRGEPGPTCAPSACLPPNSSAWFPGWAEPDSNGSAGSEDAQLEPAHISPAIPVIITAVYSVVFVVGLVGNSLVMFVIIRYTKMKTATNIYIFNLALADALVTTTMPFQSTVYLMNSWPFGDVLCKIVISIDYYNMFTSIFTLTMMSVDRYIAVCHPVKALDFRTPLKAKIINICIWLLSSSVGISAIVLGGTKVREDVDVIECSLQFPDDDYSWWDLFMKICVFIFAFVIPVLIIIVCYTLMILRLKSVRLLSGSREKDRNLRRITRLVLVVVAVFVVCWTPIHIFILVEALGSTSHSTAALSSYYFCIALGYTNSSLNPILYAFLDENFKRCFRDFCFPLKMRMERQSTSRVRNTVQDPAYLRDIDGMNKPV
In assay [14] the target is T5, Delta-type opioid receptor (Homo sapiens, UniProt P41143). The assay is described as follows: HTS Image-Based Screen for Antagonists of the DOR Receptor. [Related pubchem assays (depositor defined):AID1777, AID1785, AID1786, AID2133]. Type of assay: functional.
T5 sequence (P41143 whole entry): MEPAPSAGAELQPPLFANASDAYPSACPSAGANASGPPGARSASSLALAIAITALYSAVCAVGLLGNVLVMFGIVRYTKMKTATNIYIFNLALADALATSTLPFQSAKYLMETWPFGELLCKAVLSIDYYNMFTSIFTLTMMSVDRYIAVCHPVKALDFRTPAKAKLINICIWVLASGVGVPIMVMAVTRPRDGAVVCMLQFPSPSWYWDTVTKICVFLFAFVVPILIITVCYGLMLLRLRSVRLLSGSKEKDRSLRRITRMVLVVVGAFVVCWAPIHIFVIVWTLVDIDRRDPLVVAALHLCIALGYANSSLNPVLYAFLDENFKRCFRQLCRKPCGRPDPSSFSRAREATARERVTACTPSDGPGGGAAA
Assay [15] deals with T4, Kappa-type opioid receptor. In kind it is functional. The source holds these as a separate data set.
In assay [16] the target is T6, Beta-galactosidase (Escherichia coli, UniProt Q8VNN2). As to the kind of experiment: beta-galactosidase enzyme inhibitors and activators, dose response, artefact control for CCR6 antagonist project, biochemical, E. coli enzyme, set 3 (AID 504712). In kind it is functional.
T6 sequence (Q8VNN2 whole entry): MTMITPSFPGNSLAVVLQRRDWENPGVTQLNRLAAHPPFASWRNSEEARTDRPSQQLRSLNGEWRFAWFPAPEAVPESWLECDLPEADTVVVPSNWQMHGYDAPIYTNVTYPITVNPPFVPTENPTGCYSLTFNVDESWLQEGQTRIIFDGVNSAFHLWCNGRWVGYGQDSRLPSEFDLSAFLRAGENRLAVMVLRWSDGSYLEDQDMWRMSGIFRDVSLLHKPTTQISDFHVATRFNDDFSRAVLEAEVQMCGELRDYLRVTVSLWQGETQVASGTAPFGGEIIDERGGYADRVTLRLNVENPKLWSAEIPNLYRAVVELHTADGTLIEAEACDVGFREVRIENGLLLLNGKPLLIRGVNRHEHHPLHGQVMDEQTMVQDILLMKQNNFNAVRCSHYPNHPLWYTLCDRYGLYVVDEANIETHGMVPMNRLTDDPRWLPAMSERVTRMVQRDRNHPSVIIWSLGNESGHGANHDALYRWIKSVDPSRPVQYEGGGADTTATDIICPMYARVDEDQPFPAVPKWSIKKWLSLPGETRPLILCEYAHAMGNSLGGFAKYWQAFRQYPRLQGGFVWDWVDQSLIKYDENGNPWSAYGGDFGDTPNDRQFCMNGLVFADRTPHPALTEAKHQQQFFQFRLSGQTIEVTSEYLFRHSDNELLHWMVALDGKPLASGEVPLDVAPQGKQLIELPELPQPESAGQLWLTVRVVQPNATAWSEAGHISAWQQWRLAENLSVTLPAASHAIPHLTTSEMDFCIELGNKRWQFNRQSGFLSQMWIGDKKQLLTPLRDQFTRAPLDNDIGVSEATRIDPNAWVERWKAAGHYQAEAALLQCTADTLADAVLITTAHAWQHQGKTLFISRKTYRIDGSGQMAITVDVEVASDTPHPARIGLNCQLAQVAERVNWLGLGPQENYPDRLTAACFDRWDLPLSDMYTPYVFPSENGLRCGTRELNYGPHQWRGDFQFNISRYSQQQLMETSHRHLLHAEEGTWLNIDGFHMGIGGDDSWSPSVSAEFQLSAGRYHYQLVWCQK
The target of a further assay is Mu-type opioid receptor (Homo sapiens, UniProt P35372). The assay is described as follows: HTS Image-Based Screen for Agonists of the MOR Receptor. [Related pubchem assays (depositor defined):AID1777, AID1785, AID1786, AID2133]. Type of assay: functional.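 Further: imaging of beta-arrestin GFP recruitment into spots after receptor activation.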
In assay [17] the target is T6, Beta-galactosidase. Type of assay: functional.
The next assay concerns Streptococcus. The assay is described as follows: Group A Streptococcus viability loss, dose response, counter-screen for streptokinase expression inhibitor project, luminescence, BacTiterGlo (AID 1915).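 Further: potency for reduction of bacterial viability or growth.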 In kind it is functional, organism-based.
Assay [18] addresses T5, Delta-type opioid receptor. The assay is described as follows: HTS Image-Based Screen for Agonists of the DOR Receptor. [Related pubchem assays (depositor defined):AID1777, AID1786, AID2133]. In kind it is functional.
For assay [19], the system named is Streptococcus sp. 'group A'. As to the kind of experiment: growth inhibition of control SK(-) GAS strain, dose response, counter-screen for streptokinase expression inhibitor project, luminescence, kanamycin, BacTiterGlo, confirmation (AID 1900). Type of assay: functional, organism-based.
The next assay addresses T7, Streptokinase A (Streptococcus pyogenes serotype M1, UniProt P10520).
T7 sequence (P10520 whole entry): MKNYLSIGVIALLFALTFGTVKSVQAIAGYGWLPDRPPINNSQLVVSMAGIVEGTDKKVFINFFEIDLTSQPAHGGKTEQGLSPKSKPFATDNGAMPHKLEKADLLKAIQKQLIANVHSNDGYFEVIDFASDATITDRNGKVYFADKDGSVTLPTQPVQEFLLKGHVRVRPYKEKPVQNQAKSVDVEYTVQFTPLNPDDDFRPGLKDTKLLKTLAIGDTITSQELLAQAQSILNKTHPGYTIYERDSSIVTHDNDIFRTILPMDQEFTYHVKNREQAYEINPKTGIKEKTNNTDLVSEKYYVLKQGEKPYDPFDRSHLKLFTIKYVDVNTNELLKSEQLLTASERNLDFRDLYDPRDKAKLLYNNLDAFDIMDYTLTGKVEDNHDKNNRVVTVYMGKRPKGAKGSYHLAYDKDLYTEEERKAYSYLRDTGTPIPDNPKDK
The assay is described as follows: S. pyogenes streptokinase expression inhibitors, potency, dose response, plasminogen activation absorbance, OD405 (AID 1914).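 Further: secreted streptokinase activity via plasminogen activation per viability signal from cell pellet.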 In kind it is functional, Streptococcus pyogenes M1 GAS.

Assay [20] in a line: Luminescence Cell-Based Dose Retest to Confirm Inhibitors of Cancer Stem Cells. [Related pubchem assays (depositor defined):AID2717, AID2721]. Type of assay: functional. The settings on record: Homo sapiens.
For the next assay, the system named is H4. The assay is described as follows: Luminescence Cell-Based Dose Response HTS to Identify Activators of 5'UTR Stem-Loop Driven Prion Protein mRNA Translation in H4 Neuroglioblastoma Cells. [Related pubchem assays: 1829 (Project Summary), 1814 (Primary HTS)]. In kind it is functional. The settings on record: Homo sapiens.
A further assay has as its target Troponin, cardiac muscle (Homo sapiens, UniProt P19429+P45379+P63316). As to the kind of experiment: Fluorescence-based biochemical high throughput dose response assay for activators of the calcium sensitivity of cardiac Regulated Thin Filaments (RTF). [Related pubchem assays (depositor defined):AID493008, AID493018, AID504382, AID504383]. Type of assay: protein-complex assay.

The nature of assay [21]: Luminescence Cell-Based Dose Response HTS to Identify Activators of Luciferase Translation or Activity in H4 […] Cells. [Related pubchem assays: 1829 (Project Summary), 1814 (Primary HTS)]. Type of assay: functional.

What is called IC50 is the concentration that gives 50% inhibition. What is called AC50 is the concentration giving half of the maximal activity seen. As usually defined, the EC50 is the concentration at which the effect is half-maximal.

Chain of SWI/SNF-related matrix-associated actin-dependent regulator of chromatin subfamily A member 2 (P51531 whole entry): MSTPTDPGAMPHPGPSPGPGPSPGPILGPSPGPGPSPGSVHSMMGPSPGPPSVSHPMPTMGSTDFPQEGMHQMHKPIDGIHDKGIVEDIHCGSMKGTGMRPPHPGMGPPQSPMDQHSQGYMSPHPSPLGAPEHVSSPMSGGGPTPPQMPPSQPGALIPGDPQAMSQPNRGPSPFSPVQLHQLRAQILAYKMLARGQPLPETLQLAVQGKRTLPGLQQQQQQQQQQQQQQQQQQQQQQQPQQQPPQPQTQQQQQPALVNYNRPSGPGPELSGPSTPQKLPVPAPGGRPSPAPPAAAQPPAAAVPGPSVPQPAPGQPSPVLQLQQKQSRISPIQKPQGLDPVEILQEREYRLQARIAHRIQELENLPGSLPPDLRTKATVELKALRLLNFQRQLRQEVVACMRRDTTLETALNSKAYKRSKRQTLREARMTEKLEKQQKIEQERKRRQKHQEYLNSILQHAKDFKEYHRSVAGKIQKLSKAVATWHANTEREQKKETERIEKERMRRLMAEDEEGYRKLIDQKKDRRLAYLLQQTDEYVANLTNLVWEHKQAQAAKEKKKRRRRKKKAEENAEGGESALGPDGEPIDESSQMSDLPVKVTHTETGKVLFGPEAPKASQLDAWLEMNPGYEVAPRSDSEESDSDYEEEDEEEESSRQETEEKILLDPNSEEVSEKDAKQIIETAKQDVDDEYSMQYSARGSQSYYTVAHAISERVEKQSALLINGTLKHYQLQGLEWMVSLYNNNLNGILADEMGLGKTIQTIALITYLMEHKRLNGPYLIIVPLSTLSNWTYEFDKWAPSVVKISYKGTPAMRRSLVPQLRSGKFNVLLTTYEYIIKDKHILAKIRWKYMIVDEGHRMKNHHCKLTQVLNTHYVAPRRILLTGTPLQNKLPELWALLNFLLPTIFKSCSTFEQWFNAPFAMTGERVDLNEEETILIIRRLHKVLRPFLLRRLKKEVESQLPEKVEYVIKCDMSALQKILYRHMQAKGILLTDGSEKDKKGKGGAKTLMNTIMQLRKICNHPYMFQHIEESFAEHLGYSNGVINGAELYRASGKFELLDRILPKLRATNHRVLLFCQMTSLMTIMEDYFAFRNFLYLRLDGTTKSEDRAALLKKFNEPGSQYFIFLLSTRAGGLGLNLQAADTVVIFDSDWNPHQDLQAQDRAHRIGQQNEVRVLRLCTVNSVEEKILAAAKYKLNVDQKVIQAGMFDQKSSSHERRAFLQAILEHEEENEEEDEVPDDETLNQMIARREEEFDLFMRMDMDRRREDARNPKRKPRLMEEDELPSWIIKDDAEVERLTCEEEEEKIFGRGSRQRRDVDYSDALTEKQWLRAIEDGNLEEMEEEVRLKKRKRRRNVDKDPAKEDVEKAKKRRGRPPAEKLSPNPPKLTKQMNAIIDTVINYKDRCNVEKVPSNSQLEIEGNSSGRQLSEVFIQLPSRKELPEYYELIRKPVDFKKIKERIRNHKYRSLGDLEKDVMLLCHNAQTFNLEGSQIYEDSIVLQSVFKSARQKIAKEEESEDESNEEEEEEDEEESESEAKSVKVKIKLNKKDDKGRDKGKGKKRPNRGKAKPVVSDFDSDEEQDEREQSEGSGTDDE
Chain of DNA dC->dU-editing enzyme APOBEC-3A (P31941 whole entry): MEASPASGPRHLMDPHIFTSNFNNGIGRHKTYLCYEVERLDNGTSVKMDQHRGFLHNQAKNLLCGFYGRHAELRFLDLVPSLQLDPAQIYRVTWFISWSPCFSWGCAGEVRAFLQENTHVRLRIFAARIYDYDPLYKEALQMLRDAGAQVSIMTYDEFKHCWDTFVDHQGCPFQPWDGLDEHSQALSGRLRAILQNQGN
Chain of DNA dC->dU-editing enzyme APOBEC-3G (Q9HC16 whole entry): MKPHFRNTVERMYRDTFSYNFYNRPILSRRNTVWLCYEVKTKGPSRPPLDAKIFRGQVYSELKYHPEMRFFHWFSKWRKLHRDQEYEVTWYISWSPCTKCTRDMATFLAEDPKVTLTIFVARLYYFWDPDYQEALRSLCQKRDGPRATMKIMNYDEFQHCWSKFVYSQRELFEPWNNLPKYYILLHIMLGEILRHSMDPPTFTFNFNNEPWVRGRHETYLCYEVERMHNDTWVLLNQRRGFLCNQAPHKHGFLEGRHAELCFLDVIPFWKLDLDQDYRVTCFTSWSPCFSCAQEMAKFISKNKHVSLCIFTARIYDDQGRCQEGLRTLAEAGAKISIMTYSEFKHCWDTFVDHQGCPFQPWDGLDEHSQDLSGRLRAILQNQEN
Chain of DNA damage-inducible transcript 3 protein (P35639 whole entry): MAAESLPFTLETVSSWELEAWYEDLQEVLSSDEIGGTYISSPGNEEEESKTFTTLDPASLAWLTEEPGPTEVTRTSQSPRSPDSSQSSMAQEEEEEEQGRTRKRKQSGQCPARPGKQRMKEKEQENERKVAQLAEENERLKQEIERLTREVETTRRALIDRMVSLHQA

In the case of `OCCN(CCO)c1ccc2ccccc2c1`, the figures for the IC50 in [1], in assay [2] and in assay [3] were 21.3 µM (active), > 50 µM (not active) and 56.3 µM (active), respectively. In addition, the AC50 on CAAX prenyl protease 2 is 63.8 µM (active).
Consider `Cc1c(C(=O)c2ccc(Cl)c(Cl)c2)cnc2cc3c(cc12)OCO3`, for which the EC50 in assay [4] is > 32 µM (inactive).
Turning to `O=C(NCCCNCCCNC(=O)c1ccc(/C=N/O)nc1)c1ccc(/C=N/O)nc1`, the AC50 in [5] is 18 µM (active).
As to `CC(=O)C1=C(S(=O)(=O)c2ccc(C)cc2)CS(=O)(=O)C1`, the IC50 in [1] was 28.1 µM (active); in [8] it was > 100 µM (inactive); in assay [9], 8.26 µM (active); in assay [3], 34.3 µM (active); in assay [12] it was 10.9 µM (active). Further, the values for the EC50 in assay [6], in [7] and in assay [10] were > 91.2 µM (inactive), 4.73 µM (active) and > 91.2 µM (inactive), respectively. Further, in assay [11], the “Absolute IC50 (CHOP)” value is 10 µM.
`O=C(NC(=S)N1CCN(c2ccc(Cl)cc2[N+](=O)[O-])CC1)c1cccs1`: the IC50 in assay [13] is 12.3 µM (active); in assay [14], > 32 µM (inactive); in assay [15] it was more than 32 µM; on Beta-galactosidase [16] it was > 66.6 µM (inactive). Also, the EC50 on Mu-type opioid receptor is > 32 µM (inactive); on Beta-galactosidase [17], > 31.5 µM (inactive); in the assay on Streptococcus, 4.3 µM (active); in [18] it was > 32 µM (inactive); in assay [19] it was 2.08 µM (active).
In the case of `CC(C)Cn1c(O)c(N=NC(=O)c2cccc(S(=O)(=O)N3CCCCC3)c2)c2ccccc21`, the EC50 at Streptokinase A is > 150 µM (not active); in assay [4] it was 4.75 µM (active); in the assay with Streptococcus, 34.3 µM (active); in assay [19], 5.53 µM (active). The AC50 in assay [20] was 20.5 µM (active).
Consider `CC(/C=N/Nc1ccc2nncn2n1)=C\c1ccccc1`, for which the EC50 in the assay on H4 was > 120 µM (not active); at Troponin, cardiac muscle, > 71.5 µM (inactive); in [21], 20.7 µM (active).
